Reference: patent US6414222B1, “Gene combinations for herbicide tolerance in corn” (Regents of the University of Minnesota, priority 1993, dated 2002)

Legend:
[1] = tested on: control (2167-9/2160-154 unselected) plants; test: Whole plant sethoxydim spray, greenhouse, control regenerated plants; type: in vivo, maize; details: greenhouse-grown regenerated plants, sprayed
Source text: Groups of eight control (2167-9/2160-154 unselected) and eight S-2 plants were sprayed with either 0.0, 0.01, 0.05, 0.11, 0.22 or 0.44 kg/ha sethoxydim to determine whole plant sethoxydim-tolerance of greenhouse-grown plants. Control plants were killed by 0.05 kg/ha or more sethoxydim.

[2] = tested on: fatty acid synthesis in corn seedling chloroplasts; test: [14C]acetate and [14C]pyruvate incorporation into fatty acids in isolated chloroplasts; type: biochemical, Corn (Z. mays L.); details: 10 minute assay time, mean of two experiments ± standard error
Method: Corn (Z. mays L., ‘B37×Oh43’) seeds were germinated in darkness for 96 hours in vermiculite in an incubation chamber maintained at 30° C., 80% RH. Seedlings were then transferred to a growth chamber with a 16 hour light (25° C.) and an 8 hour dark (20° C.) cycle, 90% relative humidity (RH). After greening 48 hours, seedlings were returned to the dark incubation chamber for 12 hours to deplete chloroplast starch reserves. Seedlings were harvested 6 days after planting. Pea (P. sativum L., ‘PI 9901-C’) seedlings were grown in vermiculite in a growth chamber with a 16 hour light (21° C.) and 8 hour dark (16° C.) cycle, 80% RH. Peas were harvested 10 to 13 days after planting. Black Mexican Sweet (BMS) corn suspension cultures were maintained in a supplemented Murashige-Skoog (MS) medium (C. E. Green, Hort. Sci., 12, 7-10 (1977)), and subcultured weekly by 20-fold dilution of the suspension culture into fresh medium.
Chloroplasts from corn and pea seedlings were isolated at 4° C. (K. Cline et al., J. Biol. Chem., 260, 3691-3696 (1985)). Seedlings (50 g of shoots) were homogenized in 200 ml buffer A (50 mM HEPES-NaOH pH 7.5, 330 mM sorbitol, 0.1% w/v BSA, 1 mM MgCl2, 1 mM MnCl2, 2 mM EDTA, 5 mM isoascorbate, 1.3 mM glutathione) in an omnimixer (five, 3-second bursts at full speed). The homogenate was filtered through six layers of cheesecloth and two layers of miracloth, and then centrifuged at 3000 g for 3 minutes with hand-braking. The pellet was gently resuspended in buffer A and layered onto a preformed linear Percoll gradient (50 mM HEPES-NaOH pH 7.5, 330 mM sorbitol, 1.9 mM isoascorbate, 1.08 mM glutathione, 0.1% w/v BSA, 50% Percoll) which was centrifuged at 3000 g for 20 minutes in a Sorvall HB-4 rotor. The lower band in the gradient, containing intact chloroplasts, was washed twice by gently resuspending it in 20 ml of buffer B (50 mM HEPES-NaOH, pH 7.5, and 330 mM sorbitol) followed by repelleting (3000 g, 5 minutes). The final pellet, consisting of intact chloroplasts, was resuspended in 2 to 3 ml of buffer B and stored on ice in the dark until use.
[^14C]acetate and [^14C]pyruvate were used as precursors to measure fatty acid biosynthesis in isolated chloroplasts (B. Liedvogel et al., Planta, 169, 481-489 (1986)). [^14C]acetate incorporation was assayed in a 0.5 ml-volume containing: 50 mM HEPES-NaOH (pH 7.5), 330 mM sorbitol, 5 mM KH2PO4, 10 mM NaHCO3, 1 mM MgCl2, 1 mM ATP, 0.1 mM CoA, 0.15 mM [^14C]acetate (3.33 mCi/mmol), and chloroplasts (20 to 50 μg chlorophyll). [^14C]pyruvate incorporation into fatty acids was assayed in the same medium except that it included 2 mM TPP, 1 mM NAD^+, 0.15 mM [^14C]-pyruvate (1.33 mCi/mmol), but no acetate. […] Aliquots (50 μl) were counted for radioactivity by liquid scintillation spectrometry.

ACCase of S-2 tissue = ACCase of S-2 tissue (Zea mays, UniProt Q41743); test: ACCase activity, herbicide inhibition, S-2 tissue; type: biochemical, maize; details: on concentration basis
Method: Maize chloroplasts, isolated as described above, were suspended in buffer C (0.1 M Tricine-KOH, pH 8.0; 0.3 M glycerol, and 1 mM DTT) and homogenized in a glass tissue homogenizer. The disrupted chloroplast fraction was centrifuged at 16,000 g for 15 minutes. The supernatant was desalted on a Sephadex G-25 column (1.5×5 cm equilibrated with 0.1 M Tricine-KOH, pH 8.0; and 0.3 M glycerol) and assayed directly. ACCase activity (B. J. Nikolau et al., Arch. Biochem. Biophys., 211, 605-612 (1981)) was assayed at 30° C. in a 0.2 ml volume which contained 1 mM ATP, 3 mM acetyl coenzyme A, 2.5 mM MgCl2, 50 mM KCl, 0.5 mM DTT, and 15 mM [^14C]NaHCO3 (0.17 mCi/mmol). Reactions were initiated by addition of acetyl coenzyme A and stopped by addition of 25 μl of 12 N HCl. Product formation was determined by the radioactivity found in an acid stable fraction by liquid scintillation spectrometry. Enzyme activity was linear for 15 minutes.
Assays were conducted to determine if ACCase extracted from cell line S-2 was altered with respect to herbicide activity. ACCase activity of control tissue was 50% inhibited either by 1.5 μM sethoxydim, or by 0.25 μM haloxyfop. ACCase activity of S-2 tissue was inhibited 50% either by 70 μM sethoxydim, or by 1.8 μM haloxyfop, indicating at least 40-fold and 7-fold decreases in herbicide sensitivity on concentration basis, respectively.

SMILES	Rate that killed control plants [1] [kg/ha]	% Inhibition of [14C]acetate incorporation into fatty acids ([2]; Sethoxydim 10 μM) [%]	% Inhibition of [14C]pyruvate incorporation into fatty acids ([2]; Sethoxydim 10 μM) [%]	% Inhibition of [14C]acetate incorporation into fatty acids ([2]; Haloxyfop 1 μM) [%]	% Inhibition of [14C]pyruvate incorporation into fatty acids ([2]; Haloxyfop 1 μM) [%]	Fold decrease in herbicide sensitivity of ACCase, S-2 versus control (ACCase of S-2 tissue) [fold]
CCCC(=NOCC)C1=C(O)CC(CC(C)SCC)CC1=O (stereo not drawn) [Sethoxydim, 2-[1-(ethoxyimino)-butyl]-5-[2-(ethylthio)propyl]-3-hydroxy-2-cyclohexen-1-one]	≥ 0.05	90	98			
CC(Oc1ccc(Oc2ncc(C(F)(F)F)cc2Cl)cc1)C(=O)O (stereo not drawn) [Haloxyfop, 2-[4-[[3-chloro-5-(trifluoromethyl)-2-pyridinyl]oxy]phenoxy]-propanoic acid]				89	99	≥ 7
